# Laboratory results as given in the supplement of paper PMC10307832.
# Tests used:
# Assay in all cases: relative viability (nuclei count vs DMSO), 5 days (fraction); higher = more cells survive
# [1] = tested on: A-427
# Procedure, shortened: (§1)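 Lung cancer cell lines in 1536-well plates got either a single drug or a fixed anchor-drug dose together with five library-drug doses (not always all listed) in √10 steps, by pin tool, on the day after seeding. Nuclei were counted after 5 days, and relative viability is the treated-to-vehicle ratio of nuclei counts. Values are medians of duplicate plates.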
# [2] = tested on: NCI-H1648
# Procedure, shortened: as §1
# [3] = tested on: NCI-H2347
# Procedure, shortened: as §1
# [4] = tested on: NCI-H1666
# Procedure, shortened: as §1
# [5] = tested on: NCI-H1755
# Procedure, shortened: as §1
# [6] = tested on: NCI-H2126
# Procedure, shortened: as §1
# [7] = tested on: H3255
# Procedure, shortened: as §1
# [8] = tested on: NCI-H3122
# Procedure, shortened: as §1
# [9] = tested on: NCI-H23
# Procedure, shortened: as §1
# [10] = tested on: NCI-H2405
# Procedure, shortened: as §1
# [11] = tested on: BEN
# Procedure, shortened: as §1
# [12] = tested on: NCI-H358
# Procedure, shortened: as §1
# [13] = tested on: NCI-H727
# Procedure, shortened: as §1
# [14] = tested on: NCI-H2087
# Procedure, shortened: as §1
# [15] = tested on: ChaGo-K-1
# Procedure, shortened: as §1
# [16] = tested on: NCI-H1437
# Procedure, shortened: as §1
# [17] = tested on: NCI-H441
# Procedure, shortened: as §1
# [18] = tested on: EKVX
# Procedure, shortened: as §1
# [19] = tested on: NCI-H322M
# Procedure, shortened: as §1
compound,measurement,setting,value
Oc1nc(-c2ccc(C(F)(F)F)cc2)nc2c1CSCC2 [XAV939] + NC(=O)Nc1cc(-c2cccc(F)c2)sc1C(=O)N[C@H]1CCCNC1 [AZD7762] (partner 0.2 µM),relative viability,[1]; first compound 0.08 µM,0.816
same,relative viability,[1]; first compound 0.253 µM,0.684
same,relative viability,[1]; first compound 0.8 µM,0.706
same,relative viability,[1]; first compound 2.53 µM,0.696
same,relative viability,[2]; first compound 0.253 µM,0.501
same,relative viability,[2]; first compound 0.8 µM,0.699
same,relative viability,[2]; first compound 2.53 µM,0.598
same,relative viability,[3]; first compound 0.08 µM,0.803
same,relative viability,[3]; first compound 0.253 µM,0.612
same,relative viability,[3]; first compound 0.8 µM,0.796
same,relative viability,[3]; first compound 2.53 µM,0.58
same,relative viability,[4]; first compound 0.08 µM,0.885
same,relative viability,[4]; first compound 0.253 µM,0.656
same,relative viability,[4]; first compound 0.8 µM,0.735
same,relative viability,[4]; first compound 2.53 µM,0.621
same,relative viability,[5]; first compound 0.08 µM,0.394
same,relative viability,[5]; first compound 0.253 µM,0.501
same,relative viability,[5]; first compound 0.8 µM,0.443
same,relative viability,[5]; first compound 2.53 µM,0.458
same,relative viability,[6]; first compound 0.08 µM,1.04
same,relative viability,[6]; first compound 0.253 µM,0.912
same,relative viability,[6]; first compound 0.8 µM,0.943
same,relative viability,[6]; first compound 2.53 µM,0.882
same,relative viability,[7]; first compound 0.08 µM,0.858
same,relative viability,[7]; first compound 0.253 µM,0.753
same,relative viability,[7]; first compound 0.8 µM,0.773
same,relative viability,[7]; first compound 2.53 µM,0.669
same,relative viability,[8]; first compound 0.08 µM,1.01
same,relative viability,[8]; first compound 0.253 µM,0.964
same,relative viability,[8]; first compound 0.8 µM,0.9
same,relative viability,[8]; first compound 2.53 µM,0.573
same,relative viability,[9]; first compound 0.08 µM,0.393
same,relative viability,[9]; first compound 0.8 µM,0.195
same,relative viability,[9]; first compound 2.53 µM,0.238
same,relative viability,[10]; first compound 0.08 µM,0.701
same,relative viability,[10]; first compound 0.253 µM,0.731
same,relative viability,[10]; first compound 0.8 µM,0.672
same,relative viability,[10]; first compound 2.53 µM,0.569
same,relative viability,[11]; first compound 0.08 µM,0.629
same,relative viability,[11]; first compound 0.253 µM,0.651
same,relative viability,[11]; first compound 0.8 µM,0.619
same,relative viability,[11]; first compound 2.53 µM,0.597
same,relative viability,[12]; first compound 0.08 µM,0.476
same,relative viability,[12]; first compound 0.253 µM,0.438
same,relative viability,[12]; first compound 0.8 µM,0.344
same,relative viability,[12]; first compound 2.53 µM,0.448
same,relative viability,[13]; first compound 0.08 µM,0.514
same,relative viability,[13]; first compound 0.8 µM,0.626
same,relative viability,[13]; first compound 2.53 µM,0.783
same,relative viability,[14]; first compound 0.08 µM,1.29
same,relative viability,[14]; first compound 0.253 µM,1.2
same,relative viability,[14]; first compound 0.8 µM,1.22
same,relative viability,[14]; first compound 2.53 µM,1.31
same,relative viability,[15]; first compound 0.08 µM,0.904
same,relative viability,[15]; first compound 0.253 µM,0.686
same,relative viability,[15]; first compound 0.8 µM,0.717
same,relative viability,[15]; first compound 2.53 µM,0.754
same,relative viability,[16]; first compound 0.08 µM,1.17
same,relative viability,[16]; first compound 0.253 µM,1.07
same,relative viability,[16]; first compound 0.8 µM,1.1
same,relative viability,[16]; first compound 2.53 µM,1.02
same,relative viability,[17]; first compound 0.08 µM,1.08
same,relative viability,[17]; first compound 0.253 µM,0.947
same,relative viability,[17]; first compound 0.8 µM,1.27
same,relative viability,[17]; first compound 2.53 µM,1.27
same,relative viability,[18]; first compound 0.08 µM,0.685
same,relative viability,[18]; first compound 0.253 µM,0.646
same,relative viability,[18]; first compound 0.8 µM,0.362
same,relative viability,[18]; first compound 2.53 µM,0.56
same,relative viability,[19]; first compound 0.08 µM,0.573
same,relative viability,[19]; first compound 0.253 µM,0.45
same,relative viability,[19]; first compound 0.8 µM,0.539
same,relative viability,[19]; first compound 2.53 µM,0.495
